Results taken from patent publication US11696914B1 (priority 2019, dated 2023).
Values joined by “and” are separate entries in the source; they are usually repeats but may differ in a detail not shown here. Identical values can stand only once. Like-named read-outs stand apart in the source and are kept apart here.

Columns and labels:
[1] = in vitro; conditions: mouse, microsomes
[2] = in vitro; conditions: guinea pig, microsomes
[3] = in vitro; conditions: microsomes
[4] = in vitro; conditions: human, microsomes
[5] = test system: HeLa cells
[6] = test system: Sudan virus; conditions: guinea pig, in vivo; cited from earlier work
[7] = test system: SARS-CoV-2; experiment: microbe, parasite or virus in culture; type: cell-based
[8] = test system: Vesicular Stomatitis Virus (VSV) pseudotyped with EBOV glycoprotein; experiment: microbe, parasite or virus in culture; type: cell-based, Ebola virus; conditions: HeLa, read-out: IC50, inhibition of EBOV-VSV pseudovirus entry
[9] = test system: Marburg virus (MARV), Musoke strain; experiment: organism not typed; type: cell-based; conditions: HeLa; n=6; read-out: IC50 ± SEM versus MARV Musoke strain
[10] = test system: Ebola virus/H.sapiens-tc/COD/1995/Kikwit-9510621 (EBOV/Kik); experiment: microbe, parasite or virus in culture; type: cell-based; conditions: Zaire ebolavirus, HeLa
[11] = test system: Ebola virus/H.sapiens-tc/GIN/2014/Makona-005 (EBOV/Mak); experiment: microbe, parasite or virus in culture; type: cell-based; conditions: Zaire ebolavirus, HeLa
[12] = test system: Ebola virus/H.sapiens-tc/COD/1976/Yambuku-Mayinga (EBOV/May); experiment: microbe, parasite or virus in culture; type: cell-based; conditions: Zaire ebolavirus, HeLa
[13] = test system: Marburg virus/H.sapiens-tc/AGO/2005/Ang-1379v (MARV/Ang); experiment: organism not typed; type: cell-based; conditions: HeLa
[14] = test system: Marburg virus/H.sapiens-tc/KEN/1980/Mt. Elgon-Musoke (MARV/Mus); experiment: organism not typed; type: cell-based; conditions: HeLa
[15] = test system: Chikungunya virus; experiment: microbe, parasite or virus in culture; type: cell-based; conditions: Vero 76
[16] = test system: Ebola virus; experiment: microbe, parasite or virus in culture; type: cell-based; conditions: Zaire ebolavirus, Vero 76
[17] = test system: Influenza A virus H1N1; experiment: microbe, parasite or virus in culture; type: cell-based; conditions: H1N1, MDCK
[18] = test system: MERS coronavirus; experiment: microbe, parasite or virus in culture; type: cell-based; conditions: Middle East respiratory syndrome-related coronavirus, Vero 76
[19] = test system: Poliovirus 3; experiment: microbe, parasite or virus in culture; type: cell-based; conditions: Enterovirus C, Vero 76
[20] = test system: Tacaribe virus; experiment: microbe, parasite or virus in culture; type: cell-based; conditions: Mammarenavirus tacaribeense, Vero 76
[21] = test system: Venezuelian equine encephalitis virus; experiment: microbe, parasite or virus in culture; type: cell-based; conditions: Venezuelan equine encephalitis virus, Vero 76
[22] = test system: Yellow Fever virus; experiment: microbe, parasite or virus in culture; type: cell-based; conditions: Vero 76
[23] = test system: EBOV Zaire; experiment: microbe, parasite or virus in culture; type: cell-based, Ebola virus; conditions: Zaire ebolavirus, HeLa
[24] = test system: murine hepatitis virus (MHV); experiment: microbe, parasite or virus in culture; type: cell-based; conditions: Murine coronavirus, read-out: IC50 versus murine hepatitis virus (MHV)
[25] = molecular target: SARS-CoV-2 Spike RBD (Severe acute respiratory syndrome coronavirus 2, UniProt P0DTC2); type: binding
[26] = test system: HeLa cells; conditions: human
[27] = mouse, microsomes
[28] = guinea pig, microsomes
[29] = microsomes; for t1/2: monkey
[30] = human, microsomes
[31] = mouse, microsomes, 1 h, pH 7.4
[32] = guinea pig, pH 7.4
[33] = human, microsomes, 1 h
[34] = test system: Hartley guinea pigs; conditions: guinea pig, in vivo
[35] = Hartley, guinea pig, in vivo, po, 30 mg/kg
[36] = test system: Vero 76; conditions: African green monkey
[37] = in vivo; conditions: both, Hartley, guinea pig, po
[38] = in vivo; conditions: Hartley, guinea pig, po; for AUC(0-t): AUClast Mean; for Cmax: Cmax Mean; for half-life: T1/2
[39] = in vitro; conditions: dog
[40] = in vitro; conditions: human
[41] = test system: EBOV; conditions: human, in vivo; cited from earlier work
[42] = Severe acute respiratory syndrome coronavirus 2, A549-ACE2, read-out: IC50 against SARS-CoV-2

## Cc1ncc2n1-c1ccc(Cl)cc1C(c1ccccc1F)=NC2 [Midazolam]
[1]; t1/2 of CYP probe controls
  half-life: 1.68 min
[2]; t1/2 of CYP probe controls
  half-life: 3.75 min
[3]; monkey
  half-life: 4.3 min
[4]; t1/2 of CYP probe controls
  half-life: 2.35 min

## C[C@H]1[C@H](OC(=O)CCC(=O)O)O[C@@H]2O[C@@]3(C)CC[C@H]4[C@H](C)CC[C@@H]1[C@@]24OO3 [Artesunate]
[5]
  effect on toxicity of pyronaridine in the checkboard assay: ameliorates the toxicity of pyronaridine

## NC(=O)c1nc(F)c[nH]c1=O [Favipiravir]
[6]
  survival rates in Sudan virus-infected guinea pigs: 83-100%

## CCC(CC)COC(=O)[C@H](C)N[P@](=O)(OC[C@H]1O[C@@](C#N)(c2ccc3c(N)ncnn23)[C@H](O)[C@@H]1O)Oc1ccccc1 [Remdesivir]
[7]; [42]
  IC50: ~0.147 µM

## CCN(CC)CCOc1ccc2c(c1)C(=O)c1cc(OCCN(CC)CC)ccc1-2 [Tilorone]
[8]
  IC50: 5 µM
[9]
  IC50: 1.94 ± 0.304 µM
[10]
  IC50: 1.48 ± 0.47 µM
[11]
  IC50: 1.14 ± 0.38 µM
[12]
  IC50: 1.21 ± 1.07 µM
[13]
  IC50: 4.51 ± 1.93 µM
[14]
  IC50: 2.05 ± 0.28 µM
[15]
  EC50: 4.2 µM
[16]
  EC50: > 11 µM
[17]
  EC50: > 19 µM
[18]
  EC50: 3.7 µM
[19]
  EC50: > 25 µM
[20]
  EC50: 29 µM
[21]
  EC50: 18 µM
[22]
  EC50: > 12 µM
[23]
  EC50: 0.23 µM
[7]; [42]
  IC50: < 0.2 µM
[7]; read-out: IC50 against SARS-CoV-2
  IC50: ~0.18 µM and 0.18 µM
[24]
  IC50: ~20 µM
[25]; pH5.2
  Kd: 0.631 µM
[25]; pH 7.4
  Kd: 0.339 µM
[26]
  CC50: 18 ± 3.04 µM
[27]
  Clint: 13.5
  Dextromethorphan: compound, t1/2 normalized to dextromethorphan control: 6.3
  t1/2: 102.7 min
[28]
  Clint: 113.7
  Dextromethorphan: compound, t1/2 normalized to dextromethorphan control: 3.9
  t1/2: 12.2 min
[29]
  Clint: 14.7
  Dextromethorphan: compound, t1/2 normalized to dextromethorphan control: 16.9
  t1/2: 94.3 min
[30]
  Clint: 10.9
  Dextromethorphan: compound, t1/2 normalized to dextromethorphan control: 6.5
  t1/2: 127.1 min
[31]
  Relative Peak Area/Abundance MLM: 62.9%
[32]
  Relative Peak Area/Abundance GPLM: 35.5%
[33]; pH 7.4
  Relative Peak Area/Abundance HLM: 54.9%
[34]
  tolerability: relatively well tolerated
[34]; po, 100 mg/kg
  mortality and morbidity: significant mortality and morbidity
[35]; female
  AUClast Mean: 1340 ng·h/mL
[35]; male
  AUClast Mean: 1230 ng·h/mL
  T1/2: 798 min
[36]
  CC50: 32 µM
[37]
  MTD: 30 mg/kg
[38]; female, 30 mg/kg
  AUC(0-t): 1140 ng·h/mL
  Cmax: 246 ng/mL
  half-life: 858 min
  Tmax: 30 min
[38]; female, 100 mg/kg
  AUC(0-t): 3330 ng·h/mL
  Cmax: 384 ng/mL
  half-life: 1040 min
  Tmax: 60 min
[38]; female, 200 mg/kg
  AUC(0-t): 4680 ng·h/mL
  Cmax: 448 ng/mL
  Tmax: 60 min
[38]; male, 30 mg/kg
  AUC(0-t): 1020 ng·h/mL
  Cmax: 148 ng/mL
  half-life: 936 min
  Tmax: 60 min
[38]; male, 100 mg/kg
  AUC(0-t): 2690 ng·h/mL
  Cmax: 225 ng/mL
  Tmax: 60 min
[38]; male, 200 mg/kg
  AUC(0-t): 5750 ng·h/mL
  Cmax: 355 ng/mL
  half-life: 1740 min
  Tmax: 60 min
[39]
  CC50: 19 µM
[40]
  CC50: 6.5 µM

## COc1ccc2[nH]c([S+]([O-])Cc3ncc(C)c(OC)c3C)nc2c1 (stereo not drawn) [Omeprazole]
[2]; t1/2 of CYP probe controls
  half-life: 34 min
[3]; monkey
  half-life: 25.5 min
[4]; t1/2 of CYP probe controls
  half-life: 23.5 min

## COc1ccc2c(c1)[C@]13CCCC[C@@H]1[C@H](C2)N(C)CC3 [Dextromethorphan]
[1]; Dextromethorphan t1/2
  half-life: 16.2 min
[1]; t1/2 of CYP probe controls
  half-life: 13.2 min
[2]; Dextromethorphan t1/2
  half-life: 3.2 min
[2]; t1/2 of CYP probe controls
  half-life: 2.9 min
[3]; monkey
  half-life: 6.69 min
[3]; non-human primate
  half-life: 5.7 min
[4]; Dextromethorphan t1/2
  half-life: 19.7 min
[4]; t1/2 of CYP probe controls
  half-life: 14.8 min

## COc1ccc2nc3cc(Cl)ccc3c(N)c2n1 [M11]
[33]
  Relative Peak Area/Abundance HLM: 0.2%

## O=C(O)Cc1ccccc1Nc1c(Cl)cccc1Cl [Diclofenac]
[27]
  t1/2 of CYP probe controls: 39.6 min
[3]; monkey
  half-life: 43.1 min

## CCN(CC)CCCC(C)Nc1ccnc2cc(Cl)ccc12 (stereo not drawn) [Chloroquine]
[27]
  Clint: 29.3
  Dextromethorphan: compound, t1/2 normalized to dextromethorphan control: 2.7
  t1/2: 47.3 min
[28]
  Clint: 10.5
  Dextromethorphan: compound, t1/2 normalized to dextromethorphan control: 42.1
  t1/2: 132.6 min
[29]
  Clint: 13.0
  Dextromethorphan: compound, t1/2 normalized to dextromethorphan control: 19.1
  t1/2: 106.8 min
[30]
  Clint: 6.9
  Dextromethorphan: compound, t1/2 normalized to dextromethorphan control: 10.3
  t1/2: 201.4 min
[31]
  Relative Peak Area/Abundance MLM: 42.5%
[32]
  Relative Peak Area/Abundance GPLM: 43.3%
[33]; pH 7.4
  Relative Peak Area/Abundance HLM: 56.7%

B1: mAb114 (antibody, chains of the INN, looked up, V domains shown)
VH: EVQLVESGGGLIQPGGSLRLSCAASGFALRMYDMHWVRQTIDKRLEWVSAVGPSGDTTYADSVKGRFAVSRENAKNSLSLQMNSLTAGDTAIYYCVRSDRGVAGLFDSWGQGILVTVSS
VL: DIQMTQSPSSLSASVGDRITITCRASQAFDNYVAWYQQRPGKVPKLLISAASALHAGVPSRFSGSGSGTHFTLTISSLQPEDVATYYCQNYNSAPLTFGGGTKVEIK
[41]
  overall survival rate in EBOV patients: 66%
